Assay results as given in BindingDB's records for doi:10.1016/s0960-894x(03)00136-7 (2003).
pIC50: −log10 of the molar value.

Molecular target: Serine/threonine-protein phosphatase 2A catalytic subunit alpha (Homo sapiens) (UniProt P67775)
Assay: Inhibitory activity against protein phosphatase (PP2A) using fluorescein diphosphate as substrate

Chain of Serine/threonine-protein phosphatase 2A catalytic subunit alpha (Homo sapiens) (P67775 whole entry, looked up): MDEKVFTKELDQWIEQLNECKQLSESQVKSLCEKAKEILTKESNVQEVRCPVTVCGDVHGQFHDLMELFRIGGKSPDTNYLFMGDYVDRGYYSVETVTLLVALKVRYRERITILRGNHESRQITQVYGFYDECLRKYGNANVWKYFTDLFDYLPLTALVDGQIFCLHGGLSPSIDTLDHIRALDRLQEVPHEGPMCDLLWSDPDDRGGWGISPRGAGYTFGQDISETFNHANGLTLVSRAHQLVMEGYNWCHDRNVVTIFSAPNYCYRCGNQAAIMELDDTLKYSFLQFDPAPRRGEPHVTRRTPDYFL

| Structure (SMILES) | pIC50 |
| --- | --- |
| C=C([C@@H](O)C[C@H](O)[C@@]1(C)CC[C@H](C(C)(C)O)O1)[C@H]1CC[C@H]2O[C@@H]([C@]3(C)CC[C@@H](Br)C(C)(C)O3)CC[C@]2(C)O1 | > 5.00 |
| CC(C)(O)[C@H]1CC[C@](C)([C@@H](O)CC[C@](O)(CO)C2=CC[C@H]3O[C@@H]([C@]4(C)CC[C@@H](Br)C(C)(C)O4)CC[C@]3(C)O2)O1 | > 5.00 |
